# Test results: patent publication US6673839B1, “Pharmaceutical compositions with antitumour activity” (Universita' Degli Studi di Catania, priority 1998, dated 2004)
# Structures can show the parent of a compound that is named as a salt.
# Assays:
# [1] = tested on: HL60, Du 145, HT 29 and MCF 7 cell lines; assay: Sensitivity and apoptosis in all assayed stabilized human neoplastic cell lines; assay type: cell-based
# Procedure: The effects of L-aC on stabilized human neoplastic cell lines were tested using the methylene blue assay.
# Acute promyelocytic leukemia cell line (HL60) and prostate (Du 145), colon (HT 29) and breast (MCF 7) adenocarcinoma cell lines have been used.
# Cell suspensions at concentrations of 10^5 cells/ml were prepared.
# 100 μl of the obtained cell suspension were inoculated on 96 well plates and incubated at 37° for 12 hours, to obtain cell adhesion to the plates. After 12 hours, L-aC was added at the concentrations of 0.2 mg/ml, 2 mg/ml, 20 mg/ml. After 72 hours, the culture medium was removed and 100 μl of 100% ethanol were added for 30 min. Subsequently ethanol was removed and 1% methylene-blue was added for 2 hours. The dye was then removed and the plates were dried before adding 1M HCl.
# The induction of apoptosis has been detected due to nuclear cromatin condensation, cytoplasmic shrinking, endoplasmic reticulum dilatation and membrane blebbing together with DNA fragmentation.
# Yoshida tumour = assay: Chemopreventive effects on Yoshida tumour inoculation and thriving; assay type: in vivo, Sprague-Dowley rats; conditions: for animals showing ascites: day 8 after inoculation
# Procedure: In order to elucidate the actual chemoprevention antitumour Potentialities of L-aC, 125 Sprague-Dowley rats (4 months old, mean weight: 200 g), under standard feeding and temperature conditions (25° C.), were divided in 5 groups and treated as follows:
# Group 1: 25 rats were intraperitoneally treated, on alternate days for 10 days, with 25 mg of L-aC diluted in 5 ml of saline solution. On day 10 they were inoculated with Yoshida tumour.
# Group 2: 25 rats were intraperitoneally treated, on alternate days for 10 days, with 25 mg of L-aC diluted in 5 ml of saline solution. On day 10 they were inoculated with Yoshida tumour. Starting from day 11, they were further treated intraperitoneally, on alternate days, with 25 mg of L-aC diluted in 5 ml of saline solution, for a further 10 days.
# Group 3: 25 previously untreated rats were inoculated, on day 10, with Yoshida tumour. Starting from day 14 they were intraperitoneally treated, on alternate days, with 25 mg of L-aC diluted in 5 ml of saline solution for 10 days.
# Group 4: 25 previously untreated rats were inoculated on day 10 with Yoshida tumour. On day 18 to 24 they were intraperitoneally treated, on alternate days, with 25 mg of L-aC diluted in 5 ml of saline solution for 10 days.
# Group 5: 25 previously untreated rats were inoculated on day 10 with Yoshida tumour. On day 18 to 24 they were subjected to emptying, on alternate days, of 5 ml of ascitic fluid which was substituted with 50 mg of L-aC diluted in 5 ml of saline solution.
# The onset and evolution of the tumour were checked by daily observation and weighing.
smiles,measurement,setting,value
"CC(=O)OC(CC(=O)[O-])C[N+](C)(C)C [L-aC, L-acetylcarnitine hydrochloride]",programmed cell death phenomena,"[1]; 0.2 mg/ml, all assayed cell lines",Phenomena suggestive of programmed cell death were already observed
same,programmed cell death phenomena,[1]; 2 mg/ml,more marked and evident
same,change of effect over concentration range,[1]; 2 to 20 mg/ml,No significant changes
same,sensitivity of the tested cell lines,[1]; all tested cell lines,sensitive
same,necroscopy finding,Yoshida tumour; 6 animals sacrified at end of observation,no presence of the disease
same,animals showing ascites,Yoshida tumour; Group 1 (25 mg L-aC i.p. alternate days 10 days before inoculation),4/25
same,surviving animals,"Yoshida tumour; Group 1, 25 mg L-aC i.p. alternate days for 10 days, inoculated day 10, day 01 of observation",25
same,surviving animals,"Yoshida tumour; Group 1, 25 mg L-aC i.p. alternate days for 10 days, inoculated day 10, day 03",25
same,surviving animals,"Yoshida tumour; Group 1, 25 mg L-aC i.p. alternate days for 10 days, inoculated day 10, day 05",25
same,surviving animals,"Yoshida tumour; Group 1, 25 mg L-aC i.p. alternate days for 10 days, inoculated day 10, day 07",25
same,surviving animals,"Yoshida tumour; Group 1, 25 mg L-aC i.p. alternate days for 10 days, inoculated day 10, day 09",25
same,surviving animals,"Yoshida tumour; Group 1, 25 mg L-aC i.p. alternate days for 10 days, inoculated day 10, day 10",25
same,surviving animals,"Yoshida tumour; Group 1, 25 mg L-aC i.p. alternate days for 10 days, inoculated day 10, day 11",25
same,surviving animals,"Yoshida tumour; Group 1, 25 mg L-aC i.p. alternate days for 10 days, inoculated day 10, day 14",25
same,surviving animals,"Yoshida tumour; Group 1, 25 mg L-aC i.p. alternate days for 10 days, inoculated day 10, day 18",25
same,surviving animals,"Yoshida tumour; Group 1, 25 mg L-aC i.p. alternate days for 10 days, inoculated day 10, day 21",20
same,surviving animals,"Yoshida tumour; Group 1, 25 mg L-aC i.p. alternate days for 10 days, inoculated day 10, day 24",15
same,surviving animals,"Yoshida tumour; Group 1, 25 mg L-aC i.p. alternate days for 10 days, inoculated day 10, day 27",13
same,surviving animals,"Yoshida tumour; Group 1, 25 mg L-aC i.p. alternate days for 10 days, inoculated day 10, day 30",13
same,surviving animals,"Yoshida tumour; Group 1, 25 mg L-aC i.p. alternate days for 10 days, inoculated day 10, day 45",13
same,animals free from the disease and still alive,"Yoshida tumour; Group 1, of 21 ascites-free animals, day 27 of observation",13
same,animals with late ascites that died,"Yoshida tumour; Group 1, of 21 ascites-free animals, within day 27 of observation",8
same,day of observation by which ascitic animals died,"Yoshida tumour; Group 1, the 4 animals with ascites",≤ 26 days
same,animals showing ascites,Yoshida tumour; Group 2 (25 mg L-aC i.p. alternate days 10 days before and 10 days after inoculation),5/25
same,surviving animals,"Yoshida tumour; Group 2, 25 mg L-aC i.p. alternate days 10 days before and 10 days after inoculation (day 10), day 01 of observation",25
same,surviving animals,"Yoshida tumour; Group 2, 25 mg L-aC i.p. alternate days 10 days before and 10 days after inoculation (day 10), day 03",25
same,surviving animals,"Yoshida tumour; Group 2, 25 mg L-aC i.p. alternate days 10 days before and 10 days after inoculation (day 10), day 05",25
same,surviving animals,"Yoshida tumour; Group 2, 25 mg L-aC i.p. alternate days 10 days before and 10 days after inoculation (day 10), day 07",25
same,surviving animals,"Yoshida tumour; Group 2, 25 mg L-aC i.p. alternate days 10 days before and 10 days after inoculation (day 10), day 09",25
same,surviving animals,"Yoshida tumour; Group 2, 25 mg L-aC i.p. alternate days 10 days before and 10 days after inoculation (day 10), day 10",25
same,surviving animals,"Yoshida tumour; Group 2, 25 mg L-aC i.p. alternate days 10 days before and 10 days after inoculation (day 10), day 11",25
same,surviving animals,"Yoshida tumour; Group 2, 25 mg L-aC i.p. alternate days 10 days before and 10 days after inoculation (day 10), day 14",25
same,surviving animals,"Yoshida tumour; Group 2, 25 mg L-aC i.p. alternate days 10 days before and 10 days after inoculation (day 10), day 18",25
same,surviving animals,"Yoshida tumour; Group 2, 25 mg L-aC i.p. alternate days 10 days before and 10 days after inoculation (day 10), day 21",21
same,surviving animals,"Yoshida tumour; Group 2, 25 mg L-aC i.p. alternate days 10 days before and 10 days after inoculation (day 10), day 24",21
same,surviving animals,"Yoshida tumour; Group 2, 25 mg L-aC i.p. alternate days 10 days before and 10 days after inoculation (day 10), day 27",21
same,surviving animals,"Yoshida tumour; Group 2, 25 mg L-aC i.p. alternate days 10 days before and 10 days after inoculation (day 10), day 30",21
same,surviving animals,"Yoshida tumour; Group 2, 25 mg L-aC i.p. alternate days 10 days before and 10 days after inoculation (day 10), day 45",21
same,animals free from the disease and still alive,"Yoshida tumour; Group 2, of 20 ascites-free animals, day 27 of observation",18
same,animals with late ascites that died,"Yoshida tumour; Group 2, of 20 ascites-free animals, within day 27",2
same,animals still alive with markedly low or even no ascites,"Yoshida tumour; Group 2, day 27 of observation",3
same,animals still alive,"Yoshida tumour; Group 3 (25 mg L-aC i.p. alternate days from day 14, inoculated day 10), day 27 of observation",16/25
same,surviving animals,"Yoshida tumour; Group 3, inoculated day 10, 25 mg L-aC i.p. alternate days from day 14 for 10 days, day 01 of observation",25
same,surviving animals,"Yoshida tumour; Group 3, inoculated day 10, 25 mg L-aC i.p. alternate days from day 14 for 10 days, day 03",25
same,surviving animals,"Yoshida tumour; Group 3, inoculated day 10, 25 mg L-aC i.p. alternate days from day 14 for 10 days, day 05",25
same,surviving animals,"Yoshida tumour; Group 3, inoculated day 10, 25 mg L-aC i.p. alternate days from day 14 for 10 days, day 07",25
same,surviving animals,"Yoshida tumour; Group 3, inoculated day 10, 25 mg L-aC i.p. alternate days from day 14 for 10 days, day 09",25
same,surviving animals,"Yoshida tumour; Group 3, inoculated day 10, 25 mg L-aC i.p. alternate days from day 14 for 10 days, day 10",25
same,surviving animals,"Yoshida tumour; Group 3, inoculated day 10, 25 mg L-aC i.p. alternate days from day 14 for 10 days, day 11",25
same,surviving animals,"Yoshida tumour; Group 3, inoculated day 10, 25 mg L-aC i.p. alternate days from day 14 for 10 days, day 14",25
same,surviving animals,"Yoshida tumour; Group 3, inoculated day 10, 25 mg L-aC i.p. alternate days from day 14 for 10 days, day 18",25
same,surviving animals,"Yoshida tumour; Group 3, inoculated day 10, 25 mg L-aC i.p. alternate days from day 14 for 10 days, day 21",20
same,surviving animals,"Yoshida tumour; Group 3, inoculated day 10, 25 mg L-aC i.p. alternate days from day 14 for 10 days, day 24",18
same,surviving animals,"Yoshida tumour; Group 3, inoculated day 10, 25 mg L-aC i.p. alternate days from day 14 for 10 days, day 27",16
same,surviving animals,"Yoshida tumour; Group 3, inoculated day 10, 25 mg L-aC i.p. alternate days from day 14 for 10 days, day 30",16
same,surviving animals,"Yoshida tumour; Group 3, inoculated day 10, 25 mg L-aC i.p. alternate days from day 14 for 10 days, day 45",16
same,ascites amount in survivors,"Yoshida tumour; Group 3, day 27",markedly low or even no ascites amount
same,animals still alive,"Yoshida tumour; Group 4 (25 mg L-aC i.p. alternate days day 18 to 24, inoculated day 10), day 27 of observation",11/25
same,surviving animals,"Yoshida tumour; Group 4, inoculated day 10, 25 mg L-aC i.p. alternate days day 18 to 24, day 01 of observation",25
same,surviving animals,"Yoshida tumour; Group 4, inoculated day 10, 25 mg L-aC i.p. alternate days day 18 to 24, day 03",25
same,surviving animals,"Yoshida tumour; Group 4, inoculated day 10, 25 mg L-aC i.p. alternate days day 18 to 24, day 05",25
same,surviving animals,"Yoshida tumour; Group 4, inoculated day 10, 25 mg L-aC i.p. alternate days day 18 to 24, day 07",25
same,surviving animals,"Yoshida tumour; Group 4, inoculated day 10, 25 mg L-aC i.p. alternate days day 18 to 24, day 09",25
same,surviving animals,"Yoshida tumour; Group 4, inoculated day 10, 25 mg L-aC i.p. alternate days day 18 to 24, day 10",25
same,surviving animals,"Yoshida tumour; Group 4, inoculated day 10, 25 mg L-aC i.p. alternate days day 18 to 24, day 11",25
same,surviving animals,"Yoshida tumour; Group 4, inoculated day 10, 25 mg L-aC i.p. alternate days day 18 to 24, day 14",25
same,surviving animals,"Yoshida tumour; Group 4, inoculated day 10, 25 mg L-aC i.p. alternate days day 18 to 24, day 18",25
same,surviving animals,"Yoshida tumour; Group 4, inoculated day 10, 25 mg L-aC i.p. alternate days day 18 to 24, day 21",15
same,surviving animals,"Yoshida tumour; Group 4, inoculated day 10, 25 mg L-aC i.p. alternate days day 18 to 24, day 24",13
same,surviving animals,"Yoshida tumour; Group 4, inoculated day 10, 25 mg L-aC i.p. alternate days day 18 to 24, day 27",11
same,surviving animals,"Yoshida tumour; Group 4, inoculated day 10, 25 mg L-aC i.p. alternate days day 18 to 24, day 30",11
same,surviving animals,"Yoshida tumour; Group 4, inoculated day 10, 25 mg L-aC i.p. alternate days day 18 to 24, day 45",11
same,ascites amount in survivors,"Yoshida tumour; Group 4, day 27",markedly low or even no ascites amount
same,day of observation by which all animals died,"Yoshida tumour; Group 5 (50 mg L-aC replacing 5 ml ascitic fluid, alternate days day 18 to 24)",≤ 26 days
same,surviving animals,"Yoshida tumour; Group 5, inoculated day 10, 50 mg L-aC replacing 5 ml ascitic fluid alternate days day 18 to 24, day 01 of observation",25
same,surviving animals,"Yoshida tumour; Group 5, inoculated day 10, 50 mg L-aC replacing 5 ml ascitic fluid alternate days day 18 to 24, day 03",25
same,surviving animals,"Yoshida tumour; Group 5, inoculated day 10, 50 mg L-aC replacing 5 ml ascitic fluid alternate days day 18 to 24, day 05",25
same,surviving animals,"Yoshida tumour; Group 5, inoculated day 10, 50 mg L-aC replacing 5 ml ascitic fluid alternate days day 18 to 24, day 07",25
same,surviving animals,"Yoshida tumour; Group 5, inoculated day 10, 50 mg L-aC replacing 5 ml ascitic fluid alternate days day 18 to 24, day 09",25
same,surviving animals,"Yoshida tumour; Group 5, inoculated day 10, 50 mg L-aC replacing 5 ml ascitic fluid alternate days day 18 to 24, day 10",25
same,surviving animals,"Yoshida tumour; Group 5, inoculated day 10, 50 mg L-aC replacing 5 ml ascitic fluid alternate days day 18 to 24, day 11",25
same,surviving animals,"Yoshida tumour; Group 5, inoculated day 10, 50 mg L-aC replacing 5 ml ascitic fluid alternate days day 18 to 24, day 14",25
same,surviving animals,"Yoshida tumour; Group 5, inoculated day 10, 50 mg L-aC replacing 5 ml ascitic fluid alternate days day 18 to 24, day 18",25
same,surviving animals,"Yoshida tumour; Group 5, inoculated day 10, 50 mg L-aC replacing 5 ml ascitic fluid alternate days day 18 to 24, day 21",8
same,surviving animals,"Yoshida tumour; Group 5, inoculated day 10, 50 mg L-aC replacing 5 ml ascitic fluid alternate days day 18 to 24, day 24",3
same,surviving animals,"Yoshida tumour; Group 5, inoculated day 10, 50 mg L-aC replacing 5 ml ascitic fluid alternate days day 18 to 24, day 27",0
same,surviving animals,"Yoshida tumour; Group 5, inoculated day 10, 50 mg L-aC replacing 5 ml ascitic fluid alternate days day 18 to 24, day 30",0
same,surviving animals,"Yoshida tumour; Group 5, inoculated day 10, 50 mg L-aC replacing 5 ml ascitic fluid alternate days day 18 to 24, day 45",0
same,general condition of surviving animals,Yoshida tumour; day 45 of observation,good health
same,deaths during further observation,"Yoshida tumour; survivors, further 6 weeks",no deaths occurred
